According to US20210246122A1, “Triazine Compounds and Uses Thereof” (Aduro Biotech, Inc., priority 2018, published 2021):

Legend:
[1] = target: T1, Human cGAS amino acids 155-522 (Homo sapiens, UniProt Q8N884); experiment: cGAS activity assay (DNA-activated cGAS, remaining ATP measured by Kinase-Glo Max luciferase assay); assay type: biochemical; conditions: 300 nM purified cGAS, 1 μM dsDNA, 250 μM ATP, 100 μM GTP, 37° C. for 1.25 hours
T1 construct: hexahistidine tag (N, cleaved yes); made in house; host or cells: E. coli BL21 DE3 Rosetta 2
Protocol: IC50 values were determined as follows:
Human cGAS sequence encoding amino acids 155-522 was cloned into a pET (EMD Millipore) based expression plasmid. The resulting construct contained a tandem N-terminal hexahistidine tag, maltose binding protein fusion followed by a tobacco etch virus protease cleavable linker preceding cGAS amino acids 155-522.
Construct sequence: Amino acids 155-522, Human cGAS
Protein was expressed and purified from E. coli BL21 DE3 Rosetta 2 (EMD Millipore) cells using standard techniques. Cells were grown in 2× yeast extract tryptone medium and expression was initiated via the addition of isopropyl β-D-1-thiogalactopyranoside. Expression proceeded overnight at 18° C. Cells were harvested by centrifugation and subsequently lysed via sonication. Insoluble fraction was removed by centrifugation. Maltose binding protein (MBP) fusion proteins were purified on a dextrin sepharose column (GE Healthcare) and the MBP tag was removed using tobacco etch virus protease overnight during dialysis. Protein was further purified on a heparin column (GE Healthcare) and eluted using a NaCl gradient. Column fraction were pooled and further purified on a Superdex 75 gel filtration column (GE Healthcare). Protein was quantified using 280 nm absorbance. Protein was then flash frozen in liquid nitrogen and stored at −80° C. until use.
Potential antagonists were diluted in 100% dimethyl sulfoxide and added to the reaction. Final dimethyl sulfoxide concentration was 5%. The compounds were tested from 1 μM with either 3- or 4-fold serial dilutions down to 0.000051 or 0.000004 μM respectively.
Two complementary DNA oligos (IDT DNA) were annealed by slow cooling from 95° C. The resulting double stranded DNA was used to activate cGAS.
Reactions were performed at 37° C. for 1.25 hours. Reaction buffer: 20 mM Tris HCl pH 9, 100 mM NaCl, 5 mM MgCl2, 0.1 mg/ml bovine gamma globulin, 250 μM adenosine triphosphate, 100 μM guanosine triphosphate, 0.5 mM Tris(2-carboxyethyl)phosphine hydrochloride, 1 μM double stranded DNA and 300 nM purified cGAS protein.
Reactions were stopped and ATP levels in the reaction were measured using a luciferase based assay. Promega Kinase-Glo Max Assay. Luminescence was measured on a plate reader (Molecular Devices). Values were normalized to control wells lacking compound.

[2] = test system: cGAS/STING pathway; experiment: THP1 cell-based cGAS/STING pathway activity assay (luciferase reporter linked to IRF-3 activation); conditions: Homo sapiens, THP-1; THP1 cells, IRF-3 linked luciferase reporter
Protocol: A cellular assay can be used to assess the compounds of the invention for their ability to inhibit the cGAS/STING pathway. Cells that express a luciferase-based reporter that is linked to IRF-3 activation are used to determine response as a function of compound concentration. Such an assay is described in Vincent et al., Nature Communications 2017, 8(1):750, doi: 10.1038/s41467-017-00833-9. Compounds of the invention were assessed using similar assay methods in a THP1 cell assay to generate IC50 values as provided in the following Table 8. In this table, activity level “A” indicates an IC50 value less than 20 μM, “B” indicates an IC50 value between 20 and 100 μM, and “C” indicates an IC50 value above the upper limit of the assay (100 μM), or where an IC50 value could not be generated from the data.

T1 sequence (Q8N884 157-522): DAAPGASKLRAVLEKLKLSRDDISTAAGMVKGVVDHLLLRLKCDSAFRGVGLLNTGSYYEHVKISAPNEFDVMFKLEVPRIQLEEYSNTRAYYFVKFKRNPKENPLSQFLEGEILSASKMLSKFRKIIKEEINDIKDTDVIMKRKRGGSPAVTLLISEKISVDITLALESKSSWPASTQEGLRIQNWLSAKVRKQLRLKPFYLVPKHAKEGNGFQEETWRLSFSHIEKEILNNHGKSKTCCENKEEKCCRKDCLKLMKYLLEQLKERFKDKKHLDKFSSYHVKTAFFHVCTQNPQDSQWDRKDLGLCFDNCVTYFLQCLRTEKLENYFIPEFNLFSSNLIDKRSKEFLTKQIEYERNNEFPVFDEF

SMILES	IC50 [1]	IC50 [2]
COCCNC(=O)[C@H](Cc1ccc(C#N)cc1)Nc1nc(NCc2nc3cc(F)ccc3[nH]2)nc(Nc2cccc(CN3CCN(C(=O)c4nccnc4O)CC3)c2)n1 [TA1018, (S)-3-(4-cyanophenyl)-2-((4-(((5-fluoro-1H-benzo[d]imidazol-2-yl)methyl)amino)-6-((3-((4-(3-hydroxypyrazine-2-carbonyl)piperazin-1-yl)methyl)phenyl)amino)-1,3,5-triazin-2-yl)amino)-N-(2-methoxyethyl)propanamide]	< 20 µM	> 100 µM
COC(=O)[C@H](Cc1ccc(C#N)cc1)Nc1nc(NCc2nc3cc(F)ccc3[nH]2)nc(Nc2cccc(CN3CCN(C(=O)c4nccnc4O)CC3)c2)n1 [TA1020, methyl (S)-3-(4-cyanophenyl)-2-((4-(((5-fluoro-1H-benzo[d]imidazol-2-yl)methyl)amino)-6-((3-((4-(3-hydroxypyrazine-2-carbonyl)piperazin-1-yl)methyl)phenyl)amino)-1,3,5-triazin-2-yl)amino)propanoate]	< 20 µM	> 100 µM
CN(C)C(=O)[C@H](Cc1ccc(C#N)cc1)Nc1nc(NCc2nc3cc(F)ccc3[nH]2)nc(Nc2cccc(CN3CCN(C(=O)c4nccnc4O)CC3)c2)n1 [TA1021, (S)-3-(4-cyanophenyl)-2-((4-(((5-fluoro-1H-benzo[d]imidazol-2-yl)methyl)amino)-6-((3-((4-(3-hydroxypyrazine-2-carbonyl)piperazin-1-yl)methyl)phenyl)amino)-1,3,5-triazin-2-yl)amino)-N,N-dimethylpropanamide]	< 20 µM	> 100 µM
CNC(=O)[C@H](Cc1ccc(C#N)cc1)Nc1nc(NCc2nc3cc(F)ccc3[nH]2)nc(Nc2cccc(CN3CCN(C(=O)c4nccnc4O)CC3)c2)n1 [TA1024, (S)-3-(4-cyanophenyl)-2-((4-(((5-fluoro-1H-benzo[d]imidazol-2-yl)methyl)amino)-6-((3-((4-(3-hydroxypyrazine-2-carbonyl)piperazin-1-yl)methyl)phenyl)amino)-1,3,5-triazin-2-yl)amino)-N-methylpropanamide]	< 20 µM	> 100 µM
COCCOCCNC(=O)[C@H](Cc1ccc(C#N)cc1)Nc1nc(NCc2nc3cc(F)ccc3[nH]2)nc(Nc2cccc(CN3CCN(C(=O)c4nccnc4O)CC3)c2)n1 [TA1025, (S)-3-(4-cyanophenyl)-2-((4-(((5-fluoro-1H-benzo[d]imidazol-2-yl)methyl)amino)-6-((3-((4-(3-hydroxypyrazine-2-carbonyl)piperazin-1-yl)methyl)phenyl)amino)-1,3,5-triazin-2-yl)amino)-N-(2-(2-methoxyethoxy)ethyl)propanamide]	< 20 µM	> 100 µM
COC(=O)[C@@H](Cc1ccc(C#N)cc1)Nc1nc(NCc2nc3cc(F)ccc3[nH]2)nc(Nc2cccc(CN3CCN(C(=O)c4nccnc4O)CC3)c2)n1 [TA1027, methyl (R)-3-(4-cyanophenyl)-2-((4-(((5-fluoro-1H-benzo[d]imidazol-2-yl)methyl)amino)-6-((3-((4-(3-hydroxypyrazine-2-carbonyl)piperazin-1-yl)methyl)phenyl)amino)-1,3,5-triazin-2-yl)amino)propanoate]	< 20 µM	> 100 µM
COC(=O)[C@H](Cc1ccc(C#N)cc1)Nc1nc(Nc2cccc(CN3CCN(C(=O)c4nccnc4O)CC3)c2)nc(N(C)CCc2nc3ccc(OC)cc3[nH]2)n1 [TA1053, methyl (S)-3-(4-cyanophenyl)-2-((4-((3-((4-(3-hydroxypyrazine-2-carbonyl)piperazin-1-yl)methyl)phenyl)amino)-6-((2-(6-methoxy-1H-benzo[d]imidazol-2-yl)ethyl)(methyl)amino)-1,3,5-triazin-2-yl)amino)propanoate]	< 20 µM	> 100 µM
COC(=O)[C@H](Cc1ccc(C#N)cc1)Nc1nc(NCc2nc3cc(Cl)ccc3[nH]2)nc(Nc2cccc(CN3CCN(C(=O)c4nccnc4O)CC3)c2)n1 [TA1059, methyl (S)-2-((4-(((5-chloro-1H-benzo[d]imidazol-2-yl)methyl)amino)-6-((3-((4-(3-hydroxypyrazine-2-carbonyl)piperazin-1-yl)methyl)phenyl)amino)-1,3,5-triazin-2-yl)amino)-3-(4-cyanophenyl)propanoate]	< 20 µM	> 100 µM
COC(=O)[C@H](Cc1ccc(C#N)cc1)Nc1nc(NCc2nc3cc(Cl)ccc3[nH]2)nc(Nc2cccc(CN3CCN(C(=O)c4c[nH]nn4)CC3)c2)n1 [TA1061, methyl (S)-2-((4-((3-((4-(1H-1,2,3-triazole-4-carbonyl)piperazin-1-yl)methyl)phenyl)amino)-6-(((5-chloro-1H-benzo[d]imidazol-2-yl)methyl)amino)-1,3,5-triazin-2-yl)amino)-3-(4-cyanophenyl)propanoate]	< 20 µM	> 100 µM
COC(=O)[C@H](Cc1ccccc1)Nc1nc(NCc2nc3cc(F)ccc3[nH]2)nc(Nc2cccc(CN3CCN(C(=O)c4nccnc4O)CC3)c2)n1 [TA1065, methyl (4-(((5-fluoro-1H-benzo[d]imidazol-2-yl)methyl)amino)-6-((3-((4-(3-hydroxypyrazine-2-carbonyl)piperazin-1-yl)methyl)phenyl)amino)-1,3,5-triazin-2-yl)-L-phenylalaninate]	< 20 µM	20 to 100 µM
COC(=O)[C@H](Cc1ccc(C#N)cc1)Nc1nc(NCc2nc3cc(F)ccc3[nH]2)nc(Nc2cccc(CN3CCN(C(=O)c4ccnnc4O)CC3)c2)n1 [TA1066, methyl (S)-3-(4-cyanophenyl)-2-((4-(((5-fluoro-1H-benzo[d]imidazol-2-yl)methyl)amino)-6-((3-((4-(3-hydroxypyridazine-4-carbonyl)piperazin-1-yl)methyl)phenyl)amino)-1,3,5-triazin-2-yl)amino)propanoate]	< 20 µM	> 100 µM
COC(=O)[C@H](Cc1ccc(C#N)cc1)Nc1nc(Nc2cccc(CN3CCN(C(C)=O)CC3)c2)nc(N(Cc2nc3cc(F)ccc3[nH]2)C(C)=O)n1 [TA1076, methyl (S)-2-((4-((3-((4-acetylpiperazin-1-yl)methyl)phenyl)amino)-6-(N-((5-fluoro-1H-benzo[d]imidazol-2-yl)methyl)acetamido)-1,3,5-triazin-2-yl)amino)-3-(4-cyanophenyl)propanoate]	> 250 µM	–
COC(=O)[C@H](Cc1ccc(C#N)cc1)Nc1nc(Nc2cccc(CN3CCN(C=O)CC3)c2)nc(OC)n1 [TA1077, methyl (S)-3-(4-cyanophenyl)-2-((4-((3-((4-formylpiperazin-1-yl)methyl)phenyl)amino)-6-methoxy-1,3,5-triazin-2-yl)amino)propanoate]	> 250 µM	–
COC(=O)[C@H](Cc1ccc(C#N)cc1)Nc1nc(NCc2nc3cc(F)ccc3[nH]2)nc(Nc2cccc(CN3CCN(C(=O)c4nccnc4OC)CC3)c2)n1 [TA1078, methyl (S)-3-(4-cyanophenyl)-2-((4-(((5-fluoro-1H-benzo[d]imidazol-2-yl)methyl)amino)-6-((3-((4-(3-methoxypyrazine-2-carbonyl)piperazin-1-yl)methyl)phenyl)amino)-1,3,5-triazin-2-yl)amino)propanoate]	> 250 µM	–
COC(=O)[C@H](Cc1ccc(C#N)cc1)Nc1nc(NCc2nc3cc(F)ccc3[nH]2)nc(Nc2cccc(CN3CCN(C(=O)C4CCN(S(C)(=O)=O)CC4)CC3)c2)n1 [TA1079, methyl (S)-3-(4-cyanophenyl)-2-((4-(((5-fluoro-1H-benzo[d]imidazol-2-yl)methyl)amino)-6-((3-((4-(1-(methylsulfonyl)piperidine-4-carbonyl)piperazin-1-yl)methyl)phenyl)amino)-1,3,5-triazin-2-yl)amino)propanoate]	> 250 µM	–
